According to the NIST ThermoML archive (doi:10.1016/j.jct.2007.11.010):
Numbers after ± are expanded uncertainties.

Conditions: 101.33 kPa, Liquid

Compound | mass density (293.15 K) | mass density (298.15 K) | mass density (303.15 K) | mass density (313.15 K) | mass density (323.15 K)
OCCN1CCOCC1 [4-morpholineethanol] | 1076.58 ± 0.97 kg/m3 | 1071.3 ± 0.94 kg/m3 | 1066.51 ± 0.92 kg/m3 | 1059.19 ± 0.88 kg/m3 | 1052.64 ± 0.84 kg/m3
CCC(C)O (stereo not given) [butan-2-ol] | 805.56 ± 1.3 kg/m3 | 802.43 ± 1.4 kg/m3 | 797.76 ± 1.4 kg/m3 | 790.11 ± 1.4 kg/m3 | 784.92 ± 1.4 kg/m3
CC(C)O [propan-2-ol] | 785.18 ± 0.5 kg/m3 | 781.31 ± 0.5 kg/m3 | 776.66 ± 0.51 kg/m3 | 767.83 ± 0.52 kg/m3 | 758.71 ± 0.54 kg/m3

Other lines, results leading:

mass density (293.15 K) | mass density (298.15 K) | mass density (303.15 K) | mass density (313.15 K) | mass density (323.15 K) | Compound
809.52 ± 0.46 kg/m3 | 805.88 ± 0.47 kg/m3 | 801.99 ± 0.47 kg/m3 | 794.34 ± 0.48 kg/m3 | 786.67 ± 0.5 kg/m3 | CCCCO [butan-1-ol]
788.33 ± 0.49 kg/m3 | 784.97 ± 0.5 kg/m3 | 780.72 ± 0.5 kg/m3 | 772.61 ± 0.52 kg/m3 | 764.14 ± 0.53 kg/m3 | CCO [ethanol]
803.56 ± 0.47 kg/m3 | 799.71 ± 0.48 kg/m3 | 795.58 ± 0.48 kg/m3 | 787.34 ± 0.49 kg/m3 | 778.97 ± 0.51 kg/m3 | CCCO [propan-1-ol]
